Two compounds from doi:10.1101/2025.11.20.689572v1 (biorxiv, 2025) can be followed below.

Structures are written as SMILES. pEC50, pKi: −log10 of the molar value. Read-outs that look alike come from different tables or passages of the source.

As a reminder, the pEC50 is −log10 of the EC50, conventionally taken in molar units. A low value points to a high EC50. By pKi is commonly meant the negative decadic logarithm of the Ki, by convention in mol/L.

One assay has as its target T1, 5-HT1A (Homo sapiens, UniProt P08908).
T1 construct: gene HTR1A; full-length receptor; HEK293 with TRUPATH sensors
The assay is described as follows: TRUPATH BRET2 G protein dissociation, HEK293. It is filed as cell-based. The following applies: HBSS, […] HEPES pH […] °C; agonist mode. (In BRET a luciferase serves as donor, and the signal depends on an acceptor being close.)

The target in assay [1] is T2, HRH3 (Homo sapiens, UniProt Q9Y5N1). In words: cell-based. Details: species or system HTLA; PRESTO-Tango beta-arrestin2 recruitment, luciferase luminescence, concentration-response. The following applies: Assay=Tango; agonist mode.
The target of another assay is T3, CHRM4 (Homo sapiens, UniProt P08173).
T3 sequence (P08173 1-479): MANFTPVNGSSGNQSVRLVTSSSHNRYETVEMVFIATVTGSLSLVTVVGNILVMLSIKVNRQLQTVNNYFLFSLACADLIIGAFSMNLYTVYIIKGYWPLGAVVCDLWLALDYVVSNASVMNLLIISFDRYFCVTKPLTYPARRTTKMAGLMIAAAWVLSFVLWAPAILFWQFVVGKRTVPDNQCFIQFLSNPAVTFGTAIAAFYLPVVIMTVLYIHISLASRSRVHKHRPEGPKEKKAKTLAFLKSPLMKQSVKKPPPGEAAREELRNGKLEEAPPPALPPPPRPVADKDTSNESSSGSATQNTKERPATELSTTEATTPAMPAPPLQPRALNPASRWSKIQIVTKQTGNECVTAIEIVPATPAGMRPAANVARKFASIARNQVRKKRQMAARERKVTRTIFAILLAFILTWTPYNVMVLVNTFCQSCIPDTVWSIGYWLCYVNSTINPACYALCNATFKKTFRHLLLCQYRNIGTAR
In words: cell-based. Also noted: PRESTO-Tango beta-arrestin2 recruitment, luciferase luminescence, concentration-response. Particulars: HTLA, Assay=Tango, agonist mode, % of control agonist. The protocol:
(§1) Off-target agonism across the human GPCRome was profiled using PRESTO-Tango, following established protocols with minor adaptations [10]–[12]. […] After ~6 h recovery, cells were transfected with 20 ng plasmid DNA per well and incubated overnight. The next day, 10 µL of test compound (prepared in DMEM + 1% dFBS) was added, and plates were incubated overnight. Media and compounds were removed, and 20 µL per well of Bright-Glo luciferase reagent diluted in assay buffer (Hank’s Balanced Salt Solution (HBSS), 20 mM HEPES, pH 7.4) was added. After 20 min at room temperature (dark), luminescence was recorded. Each plate included the dopamine D2 receptor (DRD2) stimulated with 100 nM quinpirole as a positive control. For the GPCRome screen, each receptor was tested in quadruplicate at 0 and 10 µM compound (final). Responses were expressed as fold change relative to the basal (0 µM) condition. Follow-up concentration–response assays were performed under identical conditions except that serial dilutions of compounds (maximum ~30 µM, final) were added to generate full concentration–response curves.

For the next assay, the target named is T4, CHRM5 (Homo sapiens, UniProt P08912).
T4 sequence (P08912 1-532): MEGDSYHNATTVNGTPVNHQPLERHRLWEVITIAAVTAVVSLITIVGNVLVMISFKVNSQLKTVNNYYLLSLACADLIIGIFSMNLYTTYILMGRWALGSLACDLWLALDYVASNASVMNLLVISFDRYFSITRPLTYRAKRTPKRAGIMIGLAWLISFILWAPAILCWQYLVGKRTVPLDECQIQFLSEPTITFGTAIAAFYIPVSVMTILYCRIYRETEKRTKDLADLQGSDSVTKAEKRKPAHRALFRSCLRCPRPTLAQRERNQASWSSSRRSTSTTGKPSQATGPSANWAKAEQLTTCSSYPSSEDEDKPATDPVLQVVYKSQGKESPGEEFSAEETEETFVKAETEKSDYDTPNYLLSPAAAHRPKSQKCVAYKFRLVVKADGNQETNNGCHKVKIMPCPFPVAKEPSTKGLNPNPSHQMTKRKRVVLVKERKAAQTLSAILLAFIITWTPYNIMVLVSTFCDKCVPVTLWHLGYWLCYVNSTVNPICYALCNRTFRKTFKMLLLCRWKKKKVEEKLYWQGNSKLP
The assay is described as follows: cell-based. Also noted: PRESTO-Tango beta-arrestin2 recruitment, luciferase luminescence, concentration-response. Particulars: HTLA, Assay=Tango, agonist mode, % of control agonist. The protocol: as §1

The next assay has as its target HRH4 (Homo sapiens, UniProt Q9H3N8). The assay is described as follows: cell-based. Details: PRESTO-Tango beta-arrestin2 recruitment, luciferase luminescence, concentration-response. Particulars: HTLA, Assay=Tango, agonist mode, % of control agonist. As for the experimental part:
as §1

The target in the next assay is T5, CHRM1 (Homo sapiens, UniProt P11229).
T5 sequence (P11229 1-460): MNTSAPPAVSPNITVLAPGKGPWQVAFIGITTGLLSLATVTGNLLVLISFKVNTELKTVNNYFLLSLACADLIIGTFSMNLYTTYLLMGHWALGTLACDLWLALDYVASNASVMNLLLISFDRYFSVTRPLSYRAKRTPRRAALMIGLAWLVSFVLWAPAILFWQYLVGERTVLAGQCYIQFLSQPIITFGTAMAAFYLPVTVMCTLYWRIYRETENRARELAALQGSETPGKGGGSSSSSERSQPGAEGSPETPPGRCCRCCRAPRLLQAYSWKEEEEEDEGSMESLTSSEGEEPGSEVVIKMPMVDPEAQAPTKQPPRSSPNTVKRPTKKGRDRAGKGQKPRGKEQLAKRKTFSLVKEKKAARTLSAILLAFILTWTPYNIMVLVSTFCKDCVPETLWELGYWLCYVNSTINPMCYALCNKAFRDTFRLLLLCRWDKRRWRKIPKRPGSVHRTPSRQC
In words: cell-based. Details: PRESTO-Tango beta-arrestin2 recruitment, luciferase luminescence, concentration-response. The following applies: HTLA, Assay=Tango, agonist mode, % of control agonist. As for the experimental part:
as §1

The target of assay [2] is T2, HRH3. In words: cell-based. Details: PRESTO-Tango beta-arrestin2 recruitment, luciferase luminescence, concentration-response. The following applies: HTLA, Assay=Tango, agonist mode, % of control agonist. The protocol: as §1
A further assay addresses T6, α2A (Homo sapiens, UniProt P08913).
T6 construct: gene ADRA2A; full-length receptor; HEK293 cell membranes
The assay is described as follows: competitive radioligand binding, HEK293 membranes. From the text: competitive radioligand binding, HEK293 membranes on α2A

The next assay has as its target T7, 5-HT1D (Homo sapiens, UniProt P28221).
T7 construct: gene HTR1D; full-length receptor; HEK293 with TRUPATH sensors (function)
The assay is described as follows: TRUPATH BRET2 G protein dissociation, HEK293. The format is cell-based. The following applies: HBSS, […] HEPES pH […] °C; agonist mode.

The target of another assay is T8, M4 (Homo sapiens, UniProt P08173).
T8 construct: gene CHRM4; full-length receptor; HEK293 with TRUPATH sensors (function)
T8 sequence (P08173 1-479): T3 sequence (P08173 1-479)
In words: TRUPATH BRET2 G protein dissociation, HEK293. The following applies: HBSS, […] HEPES pH […] °C; agonist mode. It is filed as cell-based.

Setting [3] is: read-out: N-Desmethyl Xanomeline.

T2 sequence (Q9Y5N1 whole entry): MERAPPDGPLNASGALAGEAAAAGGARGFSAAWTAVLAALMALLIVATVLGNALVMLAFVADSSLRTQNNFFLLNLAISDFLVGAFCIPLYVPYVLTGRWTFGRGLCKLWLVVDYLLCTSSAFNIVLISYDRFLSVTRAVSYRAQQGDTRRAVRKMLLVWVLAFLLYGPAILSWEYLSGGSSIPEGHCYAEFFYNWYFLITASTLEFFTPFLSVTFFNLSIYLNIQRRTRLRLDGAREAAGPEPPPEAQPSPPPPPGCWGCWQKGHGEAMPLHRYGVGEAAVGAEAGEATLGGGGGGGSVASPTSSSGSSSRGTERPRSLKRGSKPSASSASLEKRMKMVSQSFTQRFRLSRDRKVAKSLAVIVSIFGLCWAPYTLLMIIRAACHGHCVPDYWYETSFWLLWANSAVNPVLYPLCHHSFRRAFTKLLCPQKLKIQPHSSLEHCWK
T1 sequence (P08908 whole entry): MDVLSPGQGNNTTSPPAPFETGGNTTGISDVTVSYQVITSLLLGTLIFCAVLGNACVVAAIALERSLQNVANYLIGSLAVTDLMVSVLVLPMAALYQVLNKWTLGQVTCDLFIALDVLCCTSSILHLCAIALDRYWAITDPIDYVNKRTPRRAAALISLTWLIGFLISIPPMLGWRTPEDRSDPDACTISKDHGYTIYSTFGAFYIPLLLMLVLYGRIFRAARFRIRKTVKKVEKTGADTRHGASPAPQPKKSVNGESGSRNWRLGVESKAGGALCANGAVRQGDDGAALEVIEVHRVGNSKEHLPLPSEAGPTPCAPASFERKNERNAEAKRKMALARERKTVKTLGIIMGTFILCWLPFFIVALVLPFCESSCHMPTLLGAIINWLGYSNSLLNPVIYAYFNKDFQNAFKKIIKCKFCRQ
T7 sequence (P28221 whole entry): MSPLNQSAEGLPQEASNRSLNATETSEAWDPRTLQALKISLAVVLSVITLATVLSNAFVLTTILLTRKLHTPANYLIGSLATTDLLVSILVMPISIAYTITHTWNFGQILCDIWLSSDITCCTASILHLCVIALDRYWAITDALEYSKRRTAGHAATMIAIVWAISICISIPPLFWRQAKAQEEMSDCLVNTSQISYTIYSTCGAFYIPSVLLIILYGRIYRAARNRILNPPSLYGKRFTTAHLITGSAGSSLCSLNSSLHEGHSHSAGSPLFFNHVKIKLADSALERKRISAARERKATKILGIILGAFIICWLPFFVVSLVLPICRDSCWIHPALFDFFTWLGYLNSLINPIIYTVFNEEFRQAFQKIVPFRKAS
T6 sequence (P08913 whole entry): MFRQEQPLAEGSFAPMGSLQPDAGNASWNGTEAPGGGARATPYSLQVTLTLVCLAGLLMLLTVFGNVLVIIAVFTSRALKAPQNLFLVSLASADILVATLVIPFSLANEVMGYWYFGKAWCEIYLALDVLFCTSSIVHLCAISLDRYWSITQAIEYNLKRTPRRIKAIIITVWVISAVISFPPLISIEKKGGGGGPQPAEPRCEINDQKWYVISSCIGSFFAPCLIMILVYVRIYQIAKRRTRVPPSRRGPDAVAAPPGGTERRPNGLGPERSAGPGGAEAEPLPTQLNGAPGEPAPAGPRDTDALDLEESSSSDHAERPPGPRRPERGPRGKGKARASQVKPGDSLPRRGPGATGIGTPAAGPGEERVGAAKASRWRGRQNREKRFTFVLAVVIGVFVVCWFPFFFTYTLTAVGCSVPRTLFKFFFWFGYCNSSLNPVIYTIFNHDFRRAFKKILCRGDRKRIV
Sequence of HRH4 (Q9H3N8 whole entry): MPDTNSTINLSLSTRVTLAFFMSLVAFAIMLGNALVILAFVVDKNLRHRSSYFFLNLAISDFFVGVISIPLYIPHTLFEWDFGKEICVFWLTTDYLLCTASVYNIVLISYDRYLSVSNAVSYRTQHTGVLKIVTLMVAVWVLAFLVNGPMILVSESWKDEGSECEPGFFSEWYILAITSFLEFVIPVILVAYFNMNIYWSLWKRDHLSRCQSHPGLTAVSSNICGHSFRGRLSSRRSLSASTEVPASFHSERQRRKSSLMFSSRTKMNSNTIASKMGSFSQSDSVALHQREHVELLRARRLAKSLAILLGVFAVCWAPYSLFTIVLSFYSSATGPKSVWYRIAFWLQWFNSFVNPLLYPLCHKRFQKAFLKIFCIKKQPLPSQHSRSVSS

Consider `CCCCCCOc1nsnc1C1=CCCNC1` [N-desmethylxanomeline], for which the EC50 result was “full or partial agonists at 5-HT1D and 5-HT1A in a transducer-dependent fashion” at 5-HT1A; “full or partial agonists at 5-HT1D and 5-HT1A in a transducer-dependent fashion” at 5-HT1D; “differential activation of M1-M5 muscarinic receptor transducers” at M4. In addition, the pEC50 at HRH3 [1] is 5.12. The Emax at CHRM4 (setting [3]) stood at 67.5%; on CHRM5 (setting [3]) it was 48.2%; on HRH4 (setting [3]), 10.4%; on CHRM1 (setting [3]), 28.4%; on HRH3 [2] (setting [3]), 16.8%. At α2A, the pKi is 6.36.

As for `CCCCCCOc1nsnc1C1=CCCN(C)C1` [Xanomeline], the EC50 result is “full or partial agonists at 5-HT1D and 5-HT1A in a transducer-dependent fashion” on 5-HT1A; “full or partial agonists at 5-HT1D and 5-HT1A in a transducer-dependent fashion” at 5-HT1D; “xanomeline being more potent and efficacious than carbachol at M1 and M4 muscarinic receptors” on M4. The same compound had a pEC50 on HRH3 [1] of 5.02. In addition, the Emax at CHRM4 (read-out: Xanomeline) came to 72.5%; at CHRM5 (read-out: Xanomeline) it was 70.1%; at HRH4 (read-out: Xanomeline) it was 37.3%; at CHRM1 (read-out: Xanomeline) it was 67%; at HRH3 [2] (read-out: Xanomeline), 2.89%. The pKi at α2A was 6.02.
